# Measured values taken from publication PMC3776838, “Detection of Phospho-Sites Generated by Protein Kinase CK2 in CFTR: Mechanistic Aspects of Thr1471 Phosphorylation” (PLoS ONE, 2013).
# Entries after “also recorded” stand apart in the source; their conditions may differ.
# Tests used:
# [1] = target: T1, CK2 holoenzyme (CK2 α2β2) (Homo sapiens, UniProt P67870+P68400); test: Phosphorylation of CFTR C-terminal peptides by CK2 holoenzyme (33P incorporation); type: biochemical; details: pH 7.5, 50 µM [γ-33P]ATP, 10 min, 37°C; for Kprime / Khalf / Vmax: Figure 3C, allosteric (sigmoidal) model, GraphPad Prism; for Kprime: Kprime = Khalf^h, not equal to Km unless h = 1; for phosphorylation by CK2 holoenzyme: Tricine-SDS-PAGE, autoradiography, Figures 2A and 3
# T1 construct: made in house; host or cells: Escherichia coli
# Experimental: (§1) Human CK2, both the α-catalytic subunit and the α2β2-holoenzyme were expressed in Escherichia coli. CK2α2β2 holoenzyme was reconstituted by mixing pellets expressing CK2α and CK2β independently. Cells were lysed by French press at 4°C in Tris/HCl 25 mM, pH 8, NaCl 0.4 M, DTT 1 mM, proteases inhibitors cocktail (Roche). The soluble fraction obtained after 30 min centrifugation at 15000 g was applied on Heparin-Sepharose and the proteins were separated using a gradient elution (0.4–1 M NaCl). Fractions containing CK2 were further purified by size-exclusion chromatography using a buffer composed by Tris/HCl 25 mM, pH 8, NaCl 0.5 M, DTT 1 mM.
# (§2) Recombinant mouse full length CFTR (mCFTR) was cloned, expressed and purified as described in [20]. A 42-mer peptide reproducing the C-terminal tail of human CFTR (residues 1439–1480) was expressed in Escherichia coli with an N-terminal His tag and purified using affinity chromatography (Talon) followed by cleavage of the His tag by thrombin. Further details are given in the Material S1.
# Synthetic peptide encompassing the last 20 residues of human CFTR C-terminal domain ([…], residues 1461–1480) was obtained by solid phase peptide synthesis method using a multiple peptide synthesizer (SyroII, MultiSynTech GmbH) on p-Benzyloxybenzyl alcohol resin (100–200 mesh) HMP resin (Novabiochem). The fluoren-9-ylmethoxycarbonyl (Fmoc) strategy was used throughout the peptide chain assembly, utilizing O-(7-Azabenzotriazol-1-yl)-N,N,N′,N′-tetramethyluronium hexafluorophosphate (HATU) as coupling reagent. The side-chain protected amino acid building blocks used were: N-α-Fmoc-Nω-(2,2,4,6,7-pentamethyldihydrobenzofuran-5-sulfonyl)-L-arginine, N-α-Fmoc-γ-tert-butyl-L-glutamic acid, N-α-Fmoc-β-tert-butyl-L-aspartic acid, N-α-Fmoc-O-tert-butyl-L-threonine, N-α-Fmoc-Nε-(tert-butyloxycarbonyl)-L-lysine, N-α-Fmoc-N-γ-trityl-L-glutamine. Cleavage of the peptide was performed by reacting the peptidyl-resin with a mixture containing TFA/ethanedithiol/phenol 5% for 2.5 h. Crude peptide were purified by a preparative reverse phase HPLC. Molecular mass of the peptide were confirmed by mass spectroscopy on a MALDI TOF-TOF mass spectrometer (model 4800– AB Sciex). The purity (>90%) was evaluated by analytical reverse phase HPLC.
# (§3) Peptides derived from human CFTR C-terminal region were phosphorylated by incubation in a 20-µl volume containing 50 mM Tris/HCl, pH 7.5, 10 mM MgCl2, 100 mM NaCl, and 50 µM [γ-^33P]ATP (specific radioactivity 1,500–2,000 cpm/pmol). The reaction was started by the addition of the indicated protein kinases. The reaction mixtures were incubated for 10 minutes at 37°C and stopped by the addition of 2× concentrated Tricine sample buffer (450 mM Tris HCl, pH 8.45, 12% (v/v) glycerol, 4% (w/v) SDS, 0.0025% (w/v) Coomassie Blue G, 0.0025% (w/v) Phenol Red and 105 mM DTT). Samples were separated on Tricine-SDS-PAGE following the Schägger’s protocol in a running buffer composed of 100 mM Tris/HCl, pH 8.3, 100 mM Tricine, 0.1% (w/v) SDS. ^33P incorporation was evaluated by gels autoradiography on PerkinElmer’s Cyclone Plus Storage Phosphor System. Initial rate data were analyzed with the program Prism (GraphPad Software, La Jolla, CA).
# [2] = system: WT, WT/T1471A or Phe508delCFTR; test: CFTR bands B and C in BHK cells exposed to CHX or Brefeldin A; type: cell-based, human
# Experimental: Baby hamster kidney cells (BHK) stably expressing human CFTR (hCFTR) either wild type (WT), or Phe508del, or WT T1471A were growth to reach 70–80% confluency. After 2 h-long treatment with 100 µg/mL cyclohexamide, cells were washed with PBS and incubated with 2 µM CX4945 or its vehicle for the indicated time. At each time-point cells were washed with ice-cold PBS, scraped from the plates, pelleted by centrifugation (1200 g for 5 min at room tempertaure) and lysed in a buffer containing 1% (v/v) Nonidet P40, 50 mM Tris/HCl (pH 7.5) and 150 mM NaCl with fresh protease inhibitor tablets (Roche), 1 µM Okadaic acid (Alexis) and phosphatases inhibitors cocktails 2 and 3 (Sigma). Cells were lysed by incubation on ice for 30 min and then the lysates were cleared by centrifugation at 17000 g for 30 min at 4°C. The supernatant was collected and subjected to protein concentration quantification.
# Western blot analysis was performed as described in [14] using a modified Laemmli buffer containing 105 mM dithiothreitol (final concentration) to enhance the solubilization of CFTR. 20–30 µg of total proteins were separated on 4–12% precast NuPage® Bis-Tris gradient gels (Invitrogen) according to the manufacturer’s instructions and transferred on to Optitran BA-S 83 nitrocellulose membranes (Whatman) with a semi-dry blotter (Biometra) for 1 h at 150 mA. Membranes were saturated for 1 h with 5% skimmed milk in Tris-buffered saline (TBS) containing 0.2% Tween 20. Immunoblots were developed by enhanced chemiluminescence, detected on Kodak Image Station 440 cf and analyzed by the Kodak 1D image software. Tubulin was used as loading control.
# Supplementary file pone.0074232.s004.tif: Figure S4 BHK cells expressing WT, WT/T1471A or Phe508delCFTR were exposed to either cycloheximide (CHX, 100 µg/ml) or Brefeldin A (BFA, 200 ng/ml). […] [a] Glozman R, Okiyoneda T, Mulvihill CM, Rini JM, Barriere H, Lukacs GL (2009) N-glycans are direct determinants of CFTR folding and stability in secretory and endocytic membrane traffic. J. Cell Biol. 184, 847–862. (TIF) Click here for additional data file.
# [3] = system: GCK/FAM20C; test: Phosphorylation of the 42 amino acid CFTR peptide by Golgi apparatus casein kinase; type: biochemical; details: not shown; listed as 42 amino acid peptide
# Experimental: as §2, §3
# [4] = system: CK2 α-catalytic subunit; test: Phosphorylation of the 42-mer CFTR peptide by isolated CK2 α-catalytic subunit; type: biochemical, human; details: 0.4 µg peptide, pH 7.5, 50 µM [γ-33P]ATP, 10 min, 37°C, autoradiography, Figure 2A
# Experimental: as §1
# Recombinant mouse full length CFTR (mCFTR) was cloned, expressed and purified as described in [20]. […]
# (§4) Peptides derived from human CFTR C-terminal region were phosphorylated by incubation in a 20-µl volume containing 50 mM Tris/HCl, pH 7.5, 10 mM MgCl2, 100 mM NaCl, and 50 µM [γ-^33P]ATP (specific radioactivity 1,500–2,000 cpm/pmol). […] Samples were separated on Tricine-SDS-PAGE following the Schägger’s protocol in a running buffer composed of 100 mM Tris/HCl, pH 8.3, 100 mM Tricine, 0.1% (w/v) SDS. ^33P incorporation was evaluated by gels autoradiography on PerkinElmer’s Cyclone Plus Storage Phosphor System. Initial rate data were analyzed with the program Prism (GraphPad Software, La Jolla, CA).
# [5] = system: PLK3; test: Phosphorylation of the 42-mer CFTR peptide by PLK3; type: biochemical; details: same conditions as with CK2 holoenzyme, Figure 2B
# Description: (§5) CK1 isoforms and PLK 2 and 3 were obtained as described in [21], and [22], respectively.
# as §2
# as §4, with “cpm/pmol). The reaction was started by the addition of the indicated protein kinases.” for “cpm/pmol).”
# [6] = system: PLK2; test: Phosphorylation of the 42-mer CFTR peptide by PLK2; type: biochemical; details: same conditions as with CK2 holoenzyme, Figure 2B
# Description: as §5, §2
# as §4, with “cpm/pmol). The reaction was started by the addition of the indicated protein kinases.” for “cpm/pmol).”
# [7] = system: CK1; test: Phosphorylation of the 42 amino acid CFTR peptide by CK1; type: biochemical; details: not shown; listed as 42 amino acid peptide
# Description: as §5, §2
# as §4, with “cpm/pmol). The reaction was started by the addition of the indicated protein kinases.” for “cpm/pmol).”
# [8] = CHX 100 µg/ml, 2 h, Figures 5 and S4
# [9] = listed as 42 amino acid peptide
# [10] = listed as 42 amino acid-long recombinant fragment
# T1 sequence (P68400 whole entry): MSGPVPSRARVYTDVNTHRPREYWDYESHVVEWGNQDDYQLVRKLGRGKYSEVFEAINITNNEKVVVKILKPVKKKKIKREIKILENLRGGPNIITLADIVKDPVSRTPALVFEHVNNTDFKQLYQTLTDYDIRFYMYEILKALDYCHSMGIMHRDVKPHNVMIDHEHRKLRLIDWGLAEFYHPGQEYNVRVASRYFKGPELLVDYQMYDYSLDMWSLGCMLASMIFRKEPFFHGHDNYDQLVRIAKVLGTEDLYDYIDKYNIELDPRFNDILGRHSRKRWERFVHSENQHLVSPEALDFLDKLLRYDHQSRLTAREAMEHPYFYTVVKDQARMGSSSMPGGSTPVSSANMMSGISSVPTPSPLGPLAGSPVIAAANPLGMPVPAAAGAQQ
# T1 sequence (P67870 whole entry): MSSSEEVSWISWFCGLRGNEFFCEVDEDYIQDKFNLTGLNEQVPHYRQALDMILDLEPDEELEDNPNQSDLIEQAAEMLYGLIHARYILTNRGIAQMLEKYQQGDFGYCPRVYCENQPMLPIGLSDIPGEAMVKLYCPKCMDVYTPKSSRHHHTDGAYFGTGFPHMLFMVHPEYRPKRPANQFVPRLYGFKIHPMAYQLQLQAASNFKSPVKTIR
molecule,measurement,setting,value
"KPQIAALKEETEEEVQDTRL [CFTR[1461-1480], Synthetic peptide encompassing the last 20 residues of human CFTR C-terminal domain]",Kprime,[1],1430 µM
same,Khalf,[1],1290 µM
same,Vmax,[1],1477 DLUx10^-6
same,phosphorylation by CK2 holoenzyme,[1]; listed as shorter synthetic peptide encompassing Thr1471,also phosphorylated by CK2 albeit with lower efficiency
same,phosphorylation by CK2 holoenzyme,[1]; listed as synthetic peptide encompassing the last 20 residues of hCFTR,"can also be phosphorylated by CK2 holoenzyme, although much less efficiently"
C[C@H]1CCC/C=C/[C@@H]2C[C@H](O)C[C@H]2[C@H](O)/C=C/C(=O)O1 [Brefeldin A],"effect on CFTR band B (immature core-glycosylated, ER-resident)","[2]; Brefeldin A 200 ng/ml, Figure S4",opposite effects on the fate of band B; also recorded: band B increases
"C[C@@H]1C[C@@H]([C@H](O)CC2CC(=O)NC(=O)C2)C(=O)[C@@H](C)C1 [CHX, cycloheximide]","effect on CFTR band B (immature core-glycosylated, ER-resident)",[2]; [8],fast and almost complete disappearance of band B; also recorded: attenuation/disappearance of the ER-resident band B of CFTR
same,effect on CFTR band C (mature fully glycosylated),[2]; [8],much slower; also recorded: the fully mature band C is not affected by CHX treatment
"CFTR[1439-1480]: 42-mer peptide reproducing the C-terminal tail of human CFTR (residues 1439–1480), expressed in Escherichia coli with N-terminal His tag, cleaved by thrombin (QAISPSDRVKLFPHRNSSKCKSKPQIAALKEETEEEVQDTRL; left off: His tag, N-terminal, cleaved)",phosphorylation by GCK/FAM20C,[3],"nor by other acidophilic Ser/Thr kinases (CK1, PLK2/3, GCK/FAM20C); also recorded: unable to phosphorylate the 42 amino acid peptide"
same,phosphorylation by isolated CK2 catalytic α-subunit,[4]; [9],neither by its isolated catalytic subunit
same,phosphorylation by isolated CK2 catalytic α-subunit,[4]; [10],not by the isolated catalytic α-subunit alone
same,phosphorylation by PLK3,[5],very low as compared to that obtained with CK2 holoenzyme
same,phosphorylation by PLK3,[5]; [9],"nor by other acidophilic Ser/Thr kinases (CK1, PLK2/3, GCK/FAM20C); also recorded: a weak phosphorylation was observed"
same,Kprime,[1],3.13 µM
same,Khalf,[1],1.49 µM
same,Vmax,[1],90.5 DLUx10^-6
same,phosphorylation by CK2 holoenzyme,[1]; [9],readily phosphorylated at Thr1471
same,phosphorylation by CK2 holoenzyme,[1]; [10],readily phosphorylated by CK2 holoenzyme
same,phosphorylation by CK2 holoenzyme,[1]; listed as recombinant fragment of human CFTR,"readily phosphorylated, with favorable kinetics, at Thr1471 by CK2 holoenzyme"
same,phosphorylation by PLK2,[6],very low as compared to that obtained with CK2 holoenzyme
same,phosphorylation by PLK2,[6]; [9],"nor by other acidophilic Ser/Thr kinases (CK1, PLK2/3, GCK/FAM20C); also recorded: a weak phosphorylation was observed"
same,phosphorylation by CK1,[7],"nor by other acidophilic Ser/Thr kinases (CK1, PLK2/3, GCK/FAM20C); also recorded: unable to phosphorylate the 42 amino acid peptide"
